Experimental data: PubChem BioAssay (NCI)
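Cells were grown in 96-well plates and exposed to each compound for 48 hours at five concentrations; endpoints were interpolated linearly between bracketing concentrations, or set to the highest concentration if not reached. TGI denotes the concentration required for complete inhibition of growth.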

How the values were obtained:
Experiment in all cases: NCI-60 cell line screen, 48 h
[1] = tested on: HS 578T breast
[2] = tested on: RXF 393 renal
[3] = tested on: SF-268 CNS
[4] = tested on: SR leukemia
[5] = tested on: T-47D breast
[6] = tested on: HOP-62 NSCLC
[7] = tested on: TK-10 renal
[8] = tested on: ACHN renal
[9] = tested on: NCI-H23 lung
[10] = tested on: CAKI-1 renal
[11] = tested on: HCC-2998 colon
[12] = tested on: SK-OV-3 ovarian
[13] = tested on: MDA-MB-435
[14] = tested on: HOP-92 NSCLC
[15] = tested on: HL-60(TB) leukemia

| SMILES | TGI [1] | TGI [2] | TGI [3] | TGI [4] | TGI [5] | TGI [6] | TGI [7] | TGI [8] | TGI [9] | TGI [10] | TGI [11] | TGI [12] | TGI [13] | TGI [14] | TGI [15] |
| --- | --- | --- | --- | --- | --- | --- | --- | --- | --- | --- | --- | --- | --- | --- | --- |
| Clc1cc2nnn(C3CCCCO3)c2cc1Cl (stereo not given) | > 100 µM | > 100 µM | > 100 µM | > 100 µM | > 100 µM | > 100 µM | > 100 µM | > 100 µM | > 100 µM | > 100 µM | > 100 µM | > 100 µM | > 100 µM | – | – |
| N#Cc1c(N)nc2c(N=Nc3ccccc3)c(N)nn2c1Nc1ccccc1 | – | 29.2 µM | 56.9 µM | 6.15 µM | – | 39.1 µM | 52.6 µM | 61.9 µM | 21.6 µM | 29.2 µM | – | – | 39.6 µM | 31.6 µM | 6.56 µM |
| COC(=O)CCN1CCN(CCO)CC1C (stereo not given) | > 10 µM | > 10 µM | > 10 µM | > 10 µM | > 10 µM | > 10 µM | > 10 µM | > 10 µM | > 10 µM | > 10 µM | > 10 µM | > 10 µM | > 10 µM | – | > 10 µM |
| Cc1ccc(O)c(-c2cc(-c3ccccc3)nc(/N=C\c3ccccc3)n2)c1 | 79.8 µM | – | > 100 µM | > 100 µM | > 100 µM | 58.8 µM | > 100 µM | 29.8 µM | 81.5 µM | – | – | – | > 100 µM | > 100 µM | > 100 µM |
| c1ccc(N=C2C(=Nc3ccccc3)N(C3CCCCC3)C(=NC3CCCCC3)N2c2ccccc2)cc1 | > 100 µM | > 100 µM | – | > 100 µM | > 100 µM | > 100 µM | > 100 µM | > 100 µM | > 100 µM | – | > 100 µM | – | – | > 100 µM | > 100 µM |
| CC(=O)OCC1=C2C(OC(=O)C(C)C)CC3(COC(C)=O)OC3/C=C\C3(C)OC3C2OC1=O (stereo not given) | > 100 µM | > 100 µM | > 100 µM | > 100 µM | > 100 µM | > 100 µM | > 100 µM | > 100 µM | > 100 µM | > 100 µM | > 100 µM | > 100 µM | > 100 µM | – | > 100 µM |
| COC(=O)C(=O)c1cc2ccccc2n1S(=O)(=O)c1ccccc1 | – | > 100 µM | > 100 µM | > 100 µM | > 100 µM | > 100 µM | > 100 µM | > 100 µM | > 100 µM | > 100 µM | > 100 µM | > 100 µM | > 100 µM | > 100 µM | > 100 µM |
| CC(C)[Si](Oc1cc2c3c(ccc2c(O)c1[C@@H](C)CO[Si](C)(C)C(C)(C)C)C(C)(C)CCC3)(C(C)C)C(C)C | > 100 µM | > 100 µM | > 100 µM | > 100 µM | – | > 100 µM | > 100 µM | > 100 µM | > 100 µM | > 100 µM | – | > 100 µM | > 100 µM | > 100 µM | 43.4 µM |
| Nc1ncnc2c1ccn2CC=C(CO)CO | > 100 µM | > 100 µM | > 100 µM | – | > 100 µM | > 100 µM | > 100 µM | > 100 µM | > 100 µM | > 100 µM | > 100 µM | > 100 µM | > 100 µM | > 100 µM | > 100 µM |
